Key:
ABUTH [1] = assay: Herbicidal post-emergence action - Part II; format: in vivo, Abutilon theophrasti
Excerpt: (§1) Seeds of mono- and dicotyledonous weed plants and crop plants were sown, in plastic or organic planting pots, in sandy loam, covered with soil and grown in a greenhouse under controlled growth conditions. 2 to 3 weeks after sowing, the test plants were sprayed in the single-leaf stage. The compounds according to the invention, formulated in form of wettable powders (WP) or as emulsifiable concentrates (EC), were sprayed onto the green plant parts as aqueous suspension or emulsion, with the addition of 0.5% of an additive, at an application rate of 600 1 of water/ha (converted). The test plants were placed in the greenhouse for ca. 3 weeks under optimum growth conditions, and then the effect of the preparations was assessed visually in comparison with untreated controls (herbicidal effect in percent (%): 100% effect = plants have died off, 0% effect = as control plants). Tables E1 to E10 below show the effects of selected compounds of the general formula (I) according to table 1 on various harmful plants and an application rate corresponding to 320 g/ha or below obtained by the experimental procedure mentioned above. Table E1a: post-emergence activity at 5g/ha against ABUTH in %

TRZAS = assay: Post-emergence effects on crop plants; format: in vivo, Triticum aestivum; details: crop plant
Excerpt: as §1, with “F1” for “E1”, “F5” for “E10”, “crop” for “harmful”, “[…]:” for “E1a:”, “ZEAMX” for “ABUTH”

SETVI = assay: Herbicidal post-emergence action - Part II; format: in vivo, Setaria viridis
Excerpt: as §1

VIOTR = assay: Herbicidal post-emergence action - Part II; format: in vivo, Viola tricolor
Excerpt: as §1

PHBPU = assay: Herbicidal post-emergence action - Part II; format: in vivo, Pharbitis purpurea
Excerpt: as §1

POLCO = assay: Herbicidal post-emergence action - Part II; format: in vivo, Polygonum convolvulus; details: 20 g/ha; Table E6
Excerpt: as §1

ZEAMX = assay: Post-emergence effects on crop plants; format: in vivo, Zea mays; details: crop plant
Excerpt: as §1, with “F1” for “E1”, “F5” for “E10”, “crop” for “harmful”, “[…]:” for “E1a:”, “ZEAMX” for “ABUTH”

GLXMA = assay: Post-emergence effects on crop plants; format: in vivo, Glycine max; details: crop plant
Excerpt: as §1, with “F1” for “E1”, “F5” for “E10”, “crop” for “harmful”, “[…]:” for “E1a:”, “ZEAMX” for “ABUTH”

AMARE [2] = assay: Herbicidal post-emergence action - Part II; format: in vivo, Amaranthus retroflexus
Excerpt: as §1

VERPE [3] = assay: Herbicidal post-emergence action - Part II; format: in vivo, Veronica persica
Excerpt: as §1

MATIN [4] = assay: Herbicidal post-emergence action - Part II; format: in vivo, Matricaria inodora; details: 20 g/ha; Table E4b
Excerpt: as §1

ECHCG [5] = assay: Herbicidal post-emergence action - Part II; format: in vivo, Echinochloa crus-galli; details: 20 g/ha; Table E3a
Excerpt: as §1

ECHCG [6] = assay: Herbicidal pre-emergence action - Part I; format: in vivo, Echinochloa crus-galli; details: 1280 g/ha, visual grading after ca. 3 weeks vs untreated controls
Excerpt: (§2) Seeds of mono- and dicotyledonous weed plants were sown in plastic pots (double sowings with one species of mono- and one species of dicotyledonous weed plants per pot), in sandy loam, and covered with soil. The compounds according to the invention, formulated in the form of wettable powders (WP) or as emulsifiable concentrates (EC), were applied to the surface of the covering soil as aqueous suspension or emulsion, with the addition of 0.5% of an additive, at an application rate of 600 1 of water per hectare (converted). Following treatment, the pots were placed in a greenhouse and kept under optimum growth conditions for the test plants. The visual grading of the damage to the test plants was carried out after ca. 3 weeks in comparison to untreated controls (herbicidaleffectinpercent(%):100%effect=plantshavediedoff,0%effect=ascontrolplants). [formula]
(§3) Tables A1 to A12, below, show the effects of selected compounds of the general formula (I) according to table 1 on various harmful plants and an application rate corresponding to 1280 g/ha or below obtained by the experimental procedure mentioned above. Table A1: pre-emergence activity at 1280g/ha against ABUTH in %

AMARE [7] = assay: Herbicidal post-emergence action - Part I; format: in vivo, Amaranthus retroflexus; details: one-leaf stage, rated visually after about 3 weeks vs untreated controls
Method: (§4) Seeds of mono- and dicotyledonous weed plants were placed in plastic pots in sandy loam soil (doubly sown with in each case one species of mono- or dicotyledonous weed plants per pot), covered with soil and cultivated in a greenhouse under controlled growth conditions. 2 to 3 weeks after sowing, the test plants were treated at the one-leaf stage. The compounds of the invention, formulated in the form of wettable powders (WP) or as emulsion concentrates (EC), were applied onto the green parts of the plants as aqueous suspension or emulsion with addition of 0.5% additive at a water application rate of 600 liters per hectare (converted). After the test plants had been kept in the greenhouse under optimum growth conditions for about 3 weeks, the activity of the preparations was rated visually in comparison to untreated controls. For example, 100% activity = the plants have died, 0% activity = like control plants. Tables B1 to B12, below, show the effects of selected compounds of the general formula (I) according to table 1 on various harmful plants and an application rate corresponding to 1280 g/ha or below obtained by the experimental procedure mentioned above. Table B1a: post-emergence activity at 1280g/ha against ABUTH in %

STEME [8] = assay: Herbicidal post-emergence action - Part I; format: in vivo, Stellaria media; details: one-leaf stage, rated visually after about 3 weeks vs untreated controls
Method: as §4

STEME [9] = assay: Herbicidal pre-emergence action - Part I; format: in vivo, Stellaria media; details: 1280 g/ha, visual grading after ca. 3 weeks vs untreated controls
Excerpt: as §2, §3

AMARE [10] = assay: Herbicidal pre-emergence action - Part I; format: in vivo, Amaranthus retroflexus; details: 1280 g/ha, visual grading after ca. 3 weeks vs untreated controls
Excerpt: as §2, §3

ABUTH [11] = assay: Herbicidal post-emergence action - Part I; format: in vivo, Abutilon theophrasti; details: 320 g/ha, one-leaf stage, rated visually after about 3 weeks vs untreated controls
Method: as §4

MATIN [12] = assay: Herbicidal post-emergence action - Part I; format: in vivo, Matricaria inodora; details: one-leaf stage, rated visually after about 3 weeks vs untreated controls
Method: as §4

KCHSC = assay: Herbicidal post-emergence action - Part I; format: in vivo, Kochia scoparia; details: 1280 g/ha, one-leaf stage, rated visually after about 3 weeks vs untreated controls
Method: as §4

VERPE [13] = assay: Herbicidal post-emergence action - Part I; format: in vivo, Veronica persica; details: 1280 g/ha, one-leaf stage, rated visually after about 3 weeks vs untreated controls
Method: as §4

Compound | post-emergence activity against ABUTH (ABUTH [1]; 5 g/ha, Table E1a) [%] | post-emergence activity against ABUTH (ABUTH [1]; 20 g/ha, Table E1b) [%] | post-emergence activity against TRZAS (TRZAS; 5 g/ha, Table F2a) [%] | post-emergence activity against SETVI (SETVI; 5 g/ha, Table E7a) [%] | post-emergence activity against SETVI (SETVI; 20 g/ha, Table E7b) [%] | post-emergence activity against VIOTR (VIOTR; 5 g/ha, Table E9a) [%] | post-emergence activity against VIOTR (VIOTR; 20 g/ha, Table E9b) [%] | post-emergence activity against PHBPU (PHBPU; 20 g/ha, Table E5b) [%] | post-emergence activity against ZEAMX (ZEAMX; 5 g/ha, Table F1a) [%] | post-emergence activity against AMARE (AMARE [2]; 5 g/ha, Table E2a) [%] | post-emergence activity against AMARE (AMARE [2]; 20 g/ha, Table E2b) [%] | post-emergence activity against VERPE (VERPE [3]; 5 g/ha, Table E8a) [%] | post-emergence activity against VERPE (VERPE [3]; 20 g/ha, Table E8b) [%] | post-emergence activity against MATIN (MATIN [4]) [%] | other results
Cn1c(C(F)(F)F)cc(=O)n(-c2cc(C3=NOC4(CCN(Cc5c(F)cccc5F)C4=O)C3)c(Cl)cc2F)c1=O (racemic) [Compound I-29] | 100 | 100 | 20 | 80 | 80 | 100 | 100 | 100 | 20 | 100 | 100 | 100 | 100 | 100 | post-emergence activity against TRZAS (TRZAS; 20 g/ha, Table F2b): 20%; post-emergence activity against POLCO (POLCO): 100%; post-emergence activity against GLXMA (GLXMA; 5 g/ha, Table F4a): 10%; post-emergence activity against GLXMA (GLXMA; 20 g/ha, Table F4b): 20%
Cn1c(C(F)(F)F)cc(=O)n(-c2cc(C3=NOC4(CCN(Cc5ccccc5F)C4=O)C3)c(Cl)cc2F)c1=O (racemic) [Compound I-28] | 80 | 100 | 20 | 80 | 100 | 100 | 100 | 100 | 20 | 100 | 100 | 100 | 100 | 100 | post-emergence activity against ECHCG (ECHCG [5]): 100%; post-emergence activity against PHBPU (PHBPU; 5 g/ha, Table E5a): 100%; post-emergence activity against ZEAMX (ZEAMX; 20 g/ha, Table F1b): 20%
COc1ncccc1C1=NOC2(CCN(Cc3cccc(F)c3F)C2=O)C1 (racemic) [Compound I-42] | – | – | – | – | – | – | – | – | – | – | – | – | – | – | pre-emergence activity at 1280g/ha against ECHCG in % (ECHCG [6]): 90%; post-emergence activity at 320g/ha against AMARE in % (AMARE [7]; 320 g/ha): 90%; post-emergence activity at 1280g/ha against AMARE in % (AMARE [7]; 1280 g/ha): 90%; post-emergence activity at 320g/ha against STEME in % (STEME [8]; 320 g/ha): 100%; post-emergence activity at 1280g/ha against STEME in % (STEME [8]; 1280 g/ha): 100%; pre-emergence activity at 1280g/ha against STEME in % (STEME [9]): 90%; pre-emergence activity at 1280g/ha against AMARE in % (AMARE [10]): 90%; post-emergence activity at 320g/ha against ABUTH in % (ABUTH [11]): 90%; post-emergence activity at 320g/ha against MATIN in % (MATIN [12]; 320 g/ha): 100%; post-emergence activity at 1280g/ha against MATIN in % (MATIN [12]; 1280 g/ha): 100%; post-emergence activity at 1280g/ha against KCHSC in % (KCHSC): 90%; post-emergence activity at 1280g/ha against VERPE in % (VERPE [13]): 90%
